Laboratory results taken from US7973062B2, “Androgen receptor-ablative agents” (The Ohio State University Research Foundation, priority 2008, dated 2011).
Entries after “also recorded” stand apart in the source; their conditions may differ. Read-outs that look alike come from different tables or passages of the source.

Legend:
Type in all cases: cell-based
[1] = system: androgen receptor (AR); assay: Immunocytochemical analysis of AR in LNCaP cells; conditions: 5 μM, 48 h
Method: Immunocytochemical Analysis. Cells were seeded onto coverslips in six-well plates (2.5×10^5 cells/well) for 24 h followed by exposure to 5 μM compound 12 for an additional 48 h. After extensive washing with PBS, cells were fixed and permeabilized with PBS containing 0.1% Triton X-100 for 1 h, and then incubated with anti-AR (1:100 dilution) in PBS containing 0.1% Triton X-100, 0.2% bovine serum albumin, 0.5 mM PMSF, and 1 mM DTT at room temperature for 12 h followed by Alexa Fluor 488-conjugated goat anti-mouse IgG (1:100; Molecular Probes) for 2 h. Nuclear counterstaining was performed by mounting with 4,6-diamidino-2-phenylindole (DAPI)-containing medium. Images of immunocytochemically labeled samples were observed using a Nikon microscope (Eclipse TE300).

[2] = system: PC-3 androgen-nonresponsive prostate cancer cells; assay: MTT cell viability assay, PC-3 cells; conditions: Homo sapiens, 5% FBS, read-out: IC50 for suppressing cell viability
Method: Cell Counting and Cell Viability Assay. LNCaP or PC-3 cells were placed in six-well plates (2.5×10^5 cells/well) in 10% FBS-supplemented RPMI 1640 for 24 h, and treated with various concentrations of compound 12 for additional 24, 48 and 72 h. Cells were then trypsinized and counted by using a Coulter counter (Model Z1 D/T, Beckman Coulter, Fullerton, Calif.). Cell viability was assessed by using the 3-(4,5-dimethylthiazol-2-yl)-2,5-diphenyl-2H-tetrazolium bromide (MTT) assay in six replicates in 96-well plates. LNCaP or PC-3 cells were seeded at 6000 cells per well in 10% FBS-supplemented RPMI 1640 for 24 h, followed by treatments with various compounds in 5% FBS-supplemented RPMI 1640 at the indicated concentrations. Controls received DMSO at a concentration equal to that in drug-treated cells. After the end of incubation, MTT (0.5 mg/ml) in 10% FBS-supplemented RPMI 1640 was added to each well, and cells were incubated at 37° C. for 2 hours. Medium was removed and the reduced MTT dye was solubilized in DMSO (200 μl/well). Absorbance was determined at 570 nm by a 96-well plate reader.

[3] = system: androgen receptor (AR) expression; assay: Western blot analysis of AR protein expression in LNCaP cells
Method: RT-PCR and Immunoblotting. LNCaP cells were cultured in T25 flasks at an initial density of 1×10^6 cells/flask. After exposure to various compounds at the indicated conditions, cells were subject to total RNA isolation by using an RNeasy mini-kit (QIAGEN, Valencia, Calif.). RNA concentrations were determined by measuring absorption at 260 nm in a spectrophotometer. Aliquots of 6 μg of total RNA from each sample were reverse-transcribed to cDNA using an Omniscript RT Kit (QIAGEN) according to the manufacturer's instructions, using suitable primers.
For immunoblotting, protein extracts were prepared by M-PER Mammalian Protein Extraction Reagent (Pierce, Rockford, Ill.) with freshly added 1% phosphatase and protease inhibitor cocktails (Calbiochem) followed by centrifugation at 13,000×g for 10 min. Supernatant was collected and protein concentration was determined by protein assay reagent (Bio-Rad, CA). Protein extracts were then suspended in 2×SDS sample buffer, and subject to 10% SDS-polyacrylamide gels. After electrophoresis, proteins were transferred to nitrocellulose membranes using a semidry transfer cell. The transblotted membrane was washed twice with Tris-buffered saline containing 0.1% Tween 20 (TBST). After blocking with TBST containing 5% nonfat milk for 1 h, the membrane was incubated with mouse monoclonal anti-AR (Santa Cruz) or anti-β-actin (MP Biomedicals) antibodies (diluted 1:1000) in 1% TBST nonfat milk at 4° C. overnight. After incubation with the primary antibody, the membrane was washed three times with TBST for a total of 30 min, followed by incubation with horseradish peroxidase conjugated goat anti-mouse IgG (diluted 1:2500) for 1 h at room temperature. After three thorough washes with TBST for a total of 30 min, the immunoblots were visualized by enhanced chemiluminescence.

[4] = system: AR promoter; assay: AR promoter-luciferase reporter assay in transiently transfected LNCaP cells; conditions: compounds at 10 μM, 48 h, ciglitazone and Δ2CG at 20 μM
Source text: Transfection and Luciferase assay. The 3.6-kilobase AR promoter-linked reporter plasmid p-3600ARCAT was kindly provided by Dr. Chawnshang Chang (University of Rochester Medical Center, Rochester, N.Y.). The AR promoter gene (−3600 to +550) encompassing the transcription start site was isolated by using PCR to generate hAR-luc with suitable primers. The fragment was subcloned into the pGL3 luciferase reporter vector (Promega, Madison, Wis.) at KpnI and BglII in the multiple cloning site. The PPRE-x3-TK-Luc reporter vector contains three copies of the PPAR-response element (PPRE) upstream of the thymidine kinase promoter-luciferase fusion gene and was kindly provided by Dr. Bruce Spiegelman (Harvard University, Cambridge, Mass.). The pCMVSp1 plasmid was purchased from Origene Technologies, Inc. (Rockville, Md.). LNCaP or PC3 cells were transfected with 5 μg of individual plasmids in an Amaxa Nucleofector using a cell line-specific nucleofector kit according to the manufacturer's protocol (Amaxa Biosystems, Cologne, Germany), and then seeded in 6-well plates at 5×10^5 cells per well for 48 h. The transfection efficiency was determined to be 70-80% by transfecting cells with 2 μg of pmaxGFP plasmid, followed by fluorescence microscopy to measure GFP expression. For each transfection, herpes simplex virus thymidine kinase promoter-driven Renilla reniformis luciferase was used as an internal control for normalization.
For the reporter gene assay, after transfection, cells were cultured in 24-well plates in 10% FBS-supplemented RPMI 1640 medium for 48 h, subject to different treatments for the indicated times, collected, and lysed with passive lysis buffer (Promega). Fifty-μl aliquots of the lysates were added to 96-well plates, and luciferase activity was monitored after adding 100 μl of luciferase substrate (Promega) each well by using a MicroLumatPlus LB96V luminometer (Berthold Technologies, Oak Ridge, Tenn.) with the WinGlow software package. All transfection experiments were carried out in six replicate.

[5] = system: LNCaP cells; assay: Flow cytometric cell cycle analysis in LNCaP cells; conditions: 72 h
Method: Cell Cycle Analysis. LNCaP cells were seeded in 6-well plates ([…]) and treated with different concentrations of compound 12 for 72 h. After extensive washing with PBS, cells were trypsinized followed by fixation in ice-cold 80% ethanol at 4° C. overnight. Cells were then centrifuged for 5 min at 1500×g at room temperature, and stained with propidium iodide (50 μg/ml) and RNase A (100 units/ml) in PBS. Cell cycle phase distributions were determined on a FACScort flow cytometer and analyzed by the ModFitLT V3.0 program.

In the case of `CC1(CN2C(=O)S/C(=C\c3ccc(O)c(C(F)(F)F)c3)C2=O)CCCCC1` [Compound 12, 5-(4-Hydroxy-3-trifluoromethyl-benzylidene)-3-(1-methyl-cyclohexylmethyl)-thiazolidine-2,4-dione], the “AR levels in the nucleus” value [1] is reported as “substantial decrease in AR levels in the nucleus”, the IC50 ([2]; 48 h) is reported as 15 µM and the IC50 ([2]; 72 h) is reported as 12 µM. The “AR expression level after compound washed out of the medium” value ([3]; 5 μM, washout then drug-free medium (FIG. 6C)) was “rapidly restored”, the “suppression of AR protein expression (in words)” value ([3]; 10% FBS, 72 h, Western blot) was “completely inhibited AR expression in LNCaP cells at low μM concentrations; also recorded: an-order-of-magnitude higher potency than ciglitazone” and the IC50 ([3]; 72-h exposure, Western blot (FIG. 4C), read-out: IC50 for suppressing AR expression) was about 2 µM. For the same compound, the “suppression of AR promoter-luciferase activity / AR transcription (in words)” value [4] was “optimal agents” and the cell cycle distribution [5] was “dose-dependent increase in the sub-G1 population, accompanied by decreases in the G2/M phase”.
